Measured values: patent US8809344B2, “Compounds, compositions, and methods for control of hepatitis C viral infections” (priority 2008, dated 2014)
Where two headings read alike, the source gives them in different places.

Assays:
[1] = test system: stable genotype 1b (Con1 strain) subgenomic replicon; experiment: EC50 in Clone VI cells, quantitative RT-PCR of HCV RNA; type: cell-based; conditions: Hepatitis C virus, 72 hour
Experimental: (§1) Inhibition of HCV replication by compound AP0080978 (enantiomer 2 from Example 1) was also assayed by exposing cells harboring either HCV genotype 1a, HCV genotype 1b, HCV genotype 2a replicons. […] Final DMSO percentage was 1% in a total volume of 1 ml. After a 72 hour treatment period, total RNA was extracted, quantified via RiboGreen™ assay (Invitrogen-Molecular Probes, Eugene, Oreg., USA), and equivalent amounts of RNA were subjected to quantitative RT-PCR to quantify HCV RNA levels. […] For each replicate culture, HCV RNA levels were measured by blot hybridization and normalized to β-actin RNA levels. Cytotoxicity was measured using an established neutral red dye uptake assay (Korba and Gerin (1992) Antiviral Res 19:55; Okuse et al (2005) Antiviral Res 65: 23). […] Activity and toxicity against genotype 2a was evaluated in Huh7 cells harboring a stable hRluc-containing subgenomic genotype 2a replicon containing sequence from both J6 and JFH1 strains. […]
(§2) Additional compounds of formula (I) shown in FIG. 1 were also shown to inhibit HCV RNA replication. The effects of various compounds of formula (I) on HCV RNA replicon levels were determined by measuring HCV replicon RNA levels in cells treated with various concentrations of the compounds. […] Total RNA was extracted 72 hours later, and HCV and GAPDH RNA levels were quantified via quantitative RT-PCR. […]

[2] = Cell viability (CC50) in the Clone VI RT-PCR experiment; type: cell-based; conditions: human, Experiment 1, genotype 1b
Experimental: as §1, §2

[3] = test system: genotype 1b (Con1 strain) replicon with NS4B F1809V mutation; experiment: F1809V mutant reporter replicon IVT RNA in Huh7.5 cells; type: cell-based; conditions: Hepatitis C virus
Description: To identify nucleotide changes that confer resistance to 80978, replicon RNA was reverse transcribed and amplified from total RNA extracted from 80978-resistant and control Clone A cells. […] One silent mutation at amino acid 1771 was also observed. Each mutation was introduced independently into a stable genotype 1b (Con1 strain) subgenomic reporter replicon plasmid via site-directed mutagenesis. […] The sequence of the wild type NS4B encoding sequence is provided as SEQ ID NO:1, the sequence of the mutated NS4B nucleotide sequence encoding the F1809V mutation is provided as SEQ ID NO:3, and the sequence of the mutated NS4B nucleotide sequence encoding the F1809L mutation is provided as SEQ ID NO:5. The sequence of the wild type NS4B protein is provided as SEQ ID NO:2, the sequence of the mutated NS4B protein with the F1809V mutation is provided as SEQ ID NO:4, and the sequence of the mutated NS4B nucleotide sequence encoding the F1809L mutation is provided as SEQ ID NO:6. […] A differential response was observed between cells electroporated with different replicon RNAs.

[4] = ATP viability assay (CellTiter-Glo) in replicon-harboring Huh7.5 cells; type: cell-based, human; conditions: human; 24 hours post-treatment; Huh7.5 cells harboring transient genotype 1b replicon
Experimental: Inhibition of HCV replication by AP0089652, AP0080978 (enantiomer 2 from Example 1) and AP0080977 (enantiomer 1 from Example 1) were assayed by exposing cells harboring an HCV genotype 1b replicons to the compounds and quantitating HCV replicon levels following exposure. The replicon used in these studies was a transient genotype 1b subgenomic replicon generated from the Con1 strain. In this replicon, the HCV internal ribosome entry site (IRES) within the 5′ non-translated region (NTR) drives expression of the first 32 amino acids of the core protein fused to humanized Renilla luciferase (hRluc). The encephalomycarditis IRES lies 3′ to the hRluc open reading frame (ORF) and drives expression of non-structural (NS) proteins NS3 through NS5B. Huh7.5 cells (U.S. patent application Ser. No. 10/534,571) harboring this replicon were seeded into 96-well plates at 20,000 cells per well in medium containing 10% FBS, 1× penicillin/streptomycin, 1× non-essential amino acids, and 100 ng/ml Fungizone. After a four hour attachment period, compound was added to wells using a five point 3-fold serial dilution series with four replicate treatments per dose. […] Compound-mediated HCV inhibition and toxicity were assayed 24 hours post-treatment using Renilla luciferase readout and an ATP viability assay (CellTiter-Glo, Promega, Madison, Wis., USA), respectively. […]

O=C(NCc1cccs1)c1nn2c(c1Cl)N[C@H](c1ccco1)C[C@@H]2C(F)(F)F (single isomer, unassigned) [Compound 80978]
EC50 ([1]; FIG. 2, compounds other than 80978 as racemates, read-out: EC50 for inhibition of HCV RNA replication): 900 nM
EC50 ([1]; Experiment 1, genotype 1b, RT-PCR, read-out: EC50): 900 to 1750 nM
CC50 at 72 h [2]: > 100000 nM
EC50 [3]: > 22500 nM
CC50 at 24 h [4]: > 100000 nM
